Converted amounts (≈) assume the structure as drawn. The source made the active and inactive calls. The calls are words filed in the database; no cut-off is given here.
Experiments:
[1] = target: T1, Protein cereblon/Interleukin-1 receptor-associated kinase 4 (Homo sapiens, UniProt Q9NWZ3+Q96SW2); test: PROTAC activity at CRBN/IRAK4 in human THP-1 cells assessed as induction of IRAK4 degradation incubated for 24 hrs by HiBiT lytic reagent based analysis; format: cell-based
Target sequence in this assay (Q9NWZ3 whole entry): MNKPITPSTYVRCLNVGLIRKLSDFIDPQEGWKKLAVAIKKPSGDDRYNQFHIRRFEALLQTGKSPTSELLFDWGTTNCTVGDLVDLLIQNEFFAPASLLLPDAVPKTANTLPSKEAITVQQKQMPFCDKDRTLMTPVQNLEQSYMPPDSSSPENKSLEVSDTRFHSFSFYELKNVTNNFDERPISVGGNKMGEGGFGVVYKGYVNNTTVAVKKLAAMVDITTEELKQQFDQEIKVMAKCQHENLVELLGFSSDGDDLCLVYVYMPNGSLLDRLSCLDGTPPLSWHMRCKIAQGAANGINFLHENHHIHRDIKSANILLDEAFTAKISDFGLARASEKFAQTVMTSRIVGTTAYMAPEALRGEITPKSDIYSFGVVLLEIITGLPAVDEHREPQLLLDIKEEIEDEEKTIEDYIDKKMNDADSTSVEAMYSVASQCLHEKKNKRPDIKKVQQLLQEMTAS
Target sequence in this assay (Q96SW2 whole entry): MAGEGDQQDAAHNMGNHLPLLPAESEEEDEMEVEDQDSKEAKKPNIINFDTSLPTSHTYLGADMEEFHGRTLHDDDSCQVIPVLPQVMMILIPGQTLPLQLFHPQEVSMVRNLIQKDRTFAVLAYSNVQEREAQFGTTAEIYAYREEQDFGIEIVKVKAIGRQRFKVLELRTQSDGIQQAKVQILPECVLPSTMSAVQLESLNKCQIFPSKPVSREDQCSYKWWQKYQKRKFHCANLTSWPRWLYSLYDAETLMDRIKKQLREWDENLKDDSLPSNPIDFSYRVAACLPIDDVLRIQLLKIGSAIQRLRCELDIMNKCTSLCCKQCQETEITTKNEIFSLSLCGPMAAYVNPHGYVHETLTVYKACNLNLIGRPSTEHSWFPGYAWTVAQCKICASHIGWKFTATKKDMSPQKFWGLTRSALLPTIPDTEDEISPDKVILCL

[2] = target: T1, Protein cereblon/Interleukin-1 receptor-associated kinase 4; test: PROTAC activity at CRBN/IRAK4 in human THP-1 cells assessed as induction of IRAK4 degradation incubated for 24 hrs by HiBiT lytic reagent based analysis relative to control; format: cell-based
Target sequence in this assay (Q96SW2 whole entry, looked up): as the sequence (Q96SW2 whole entry) above
Target sequence in this assay (Q9NWZ3 whole entry, looked up): as the sequence (Q9NWZ3 whole entry) above

[3] = Metabolic stability in human liver microsome assessed as half life at 1 uM measured up to 60 mins in presence of NADPH by LC-MS/MS analysis; format: ADME; details: liver microsomes
[4] = Metabolic stability in cynomolgus monkey liver microsome assessed as half life at 1 uM measured up to 60 mins in presence of NADPH by LC-MS/MS analysis; format: ADME, Macaca fascicularis; details: liver microsomes
[5] = Metabolic stability in rat liver microsome assessed as half life at 1 uM measured up to 60 mins in presence of NADPH by LC-MS/MS analysis; format: ADME; details: liver microsomes
[6] = Metabolic stability in mouse liver microsome assessed as half life at 1 uM measured up to 60 mins in presence of NADPH by LC-MS/MS analysis; format: ADME; details: liver microsomes
hERG (KCNH2) = hERG (KCNH2) (Homo sapiens, UniProt Q12809); test: Inhibition of hERG expressed in HEK293 cells at 3 uM by manual patch clamp assay relative to control; format: toxicity, cell-based; details: HEK293 cells expressing hERG
[7] = Metabolic stability rat hepatocyte assessed as half life at 1 uM measured up to 120 mins by LC-MS/MS analysis; format: ADME, cell-based; details: hepatocytes
[8] = Metabolic stability mouse hepatocyte assessed as half life at 1 uM measured up to 120 mins by LC-MS/MS analysis; format: ADME, cell-based; details: hepatocytes
[9] = Efflux ratio of permeability across basolateral to apical over apical to basolateral side in human Caco-2 cells measured up to 120 mins by LC-MS/MS analysis; format: ADME, cell-based
[10] = Kinetic solubility of compound in PBS buffer at pH 7.4 incubated for 2 hr by LC-MS analysis; format: physicochemical; details: read-out: Kinetic_solubility
[11] = Kinetic solubility of compound in FaSSIF at pH 6.5 incubated for 2 hr by LC-MS analysis; format: physicochemical; details: read-out: Kinetic_solubility
[12] = Kinetic solubility of compound in FaSSGF at […] incubated for 2 hr by LC-MS analysis; format: physicochemical; details: read-out: Kinetic_solubility
[13] = AUClast in male C57BL/6 mouse at 2 mg/kg, iv measured up to 24 hrs by LC-MS/MS analysis; format: ADME, organism-based; details: in vivo
[14] = Tmax in male C57BL/6 mouse at 10 mg/kg, po measured up to 24 hrs by LC-MS/MS analysis; format: ADME, organism-based; details: in vivo
[15] = AUClast in male C57BL/6 mouse at 10 mg/kg, po measured up to 24 hrs by LC-MS/MS analysis; format: ADME, organism-based; details: in vivo
[16] = Half life in male C57BL/6 mouse at 10 mg/kg, po measured up to 24 hrs by LC-MS/MS analysis; format: ADME, organism-based; details: in vivo
[17] = Oral bioavailability in male C57BL/6 mouse at 10 mg/kg measured up to 24 hrs by LC-MS/MS analysis; format: ADME, organism-based; details: in vivo
[18] = AUClast in Sprague-Dawley rat at 10 mg/kg, po measured up to 24 hrs by LC-MS/MS analysis; format: ADME, organism-based; details: in vivo
[19] = Oral bioavailability in Sprague-Dawley rat at 10 mg/kg measured up to 24 hrs by LC-MS/MS analysis; format: ADME, organism-based; details: in vivo
[20] = AUClast in Beagle dog at 2 mg/kg, iv measured up to 24 hrs by LC-MS/MS analysis; format: ADME, organism-based, Canis lupus familiaris; details: in vivo
[21] = AUClast in Beagle dog at 10 mg/kg, po measured up to 24 hrs by LC-MS/MS analysis; format: ADME, organism-based, Canis lupus familiaris; details: in vivo
[22] = Oral bioavailability in Beagle dog at 10 mg/kg measured up to 24 hrs by LC-MS/MS analysis; format: ADME, organism-based, Canis lupus familiaris; details: in vivo
[23] = Clearance in cynomolgus monkey at 1 mg/kg, iv measured up to 24 hrs by LC-MS/MS analysis; format: ADME, organism-based, Macaca fascicularis; details: in vivo
[24] = Volume of distribution at steady state in cynomolgus monkey at 1 mg/kg, iv measured up to 24 hrs by LC-MS/MS analysis; format: ADME, organism-based, Macaca fascicularis; details: in vivo, read-out: Vdss
[25] = Tmax in cynomolgus monkey at 20 mg/kg, po measured up to 24 hrs by LC-MS/MS analysis; format: ADME, organism-based, Macaca fascicularis; details: in vivo
[26] = Cmax in cynomolgus monkey at 20 mg/kg, po measured up to 24 hrs by LC-MS/MS analysis; format: ADME, organism-based, Macaca fascicularis; details: in vivo
[27] = Oral bioavailability in cynomolgus monkey at 20 mg/kg measured up to 24 hrs by LC-MS/MS analysis; format: ADME, organism-based, Macaca fascicularis; details: in vivo
CYP2C9 = CYP2C9 (Homo sapiens, UniProt P11712); test: Inhibition of CYP2C9 in human liver microsome using diclofenac as substrate at 10 uM preincubated for 5 mins followed by NADPH addition and measured after 10 mins by LC-MS/MS analysis relative to control; format: ADME; details: human liver microsomes, probe diclofenac, time 15 min
Chain of CYP2C9 (P11712 whole entry): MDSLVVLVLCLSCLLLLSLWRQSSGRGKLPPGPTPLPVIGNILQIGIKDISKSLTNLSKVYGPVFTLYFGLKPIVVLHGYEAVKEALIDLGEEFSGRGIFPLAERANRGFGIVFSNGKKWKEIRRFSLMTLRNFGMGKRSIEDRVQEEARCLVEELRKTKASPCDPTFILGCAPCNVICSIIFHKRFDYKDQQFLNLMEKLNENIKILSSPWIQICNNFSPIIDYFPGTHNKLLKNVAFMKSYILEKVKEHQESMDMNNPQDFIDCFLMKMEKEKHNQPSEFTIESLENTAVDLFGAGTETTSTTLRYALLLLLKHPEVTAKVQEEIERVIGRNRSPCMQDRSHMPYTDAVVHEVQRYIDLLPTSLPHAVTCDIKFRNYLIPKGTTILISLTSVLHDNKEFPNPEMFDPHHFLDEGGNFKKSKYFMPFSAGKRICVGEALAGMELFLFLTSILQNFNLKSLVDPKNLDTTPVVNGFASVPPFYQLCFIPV

CYP2D6 = CYP2D6 (Homo sapiens, UniProt P10635); test: Inhibition of CYP2D6 in human liver microsome using dextromethorphan as substrate at 10 uM preincubated for 5 mins followed by NADPH addition and measured after 10 mins by LC-MS/MS analysis relative to control; format: ADME; details: human liver microsomes, probe dextromethorphan, time 15 min
Chain of CYP2D6 (P10635 whole entry): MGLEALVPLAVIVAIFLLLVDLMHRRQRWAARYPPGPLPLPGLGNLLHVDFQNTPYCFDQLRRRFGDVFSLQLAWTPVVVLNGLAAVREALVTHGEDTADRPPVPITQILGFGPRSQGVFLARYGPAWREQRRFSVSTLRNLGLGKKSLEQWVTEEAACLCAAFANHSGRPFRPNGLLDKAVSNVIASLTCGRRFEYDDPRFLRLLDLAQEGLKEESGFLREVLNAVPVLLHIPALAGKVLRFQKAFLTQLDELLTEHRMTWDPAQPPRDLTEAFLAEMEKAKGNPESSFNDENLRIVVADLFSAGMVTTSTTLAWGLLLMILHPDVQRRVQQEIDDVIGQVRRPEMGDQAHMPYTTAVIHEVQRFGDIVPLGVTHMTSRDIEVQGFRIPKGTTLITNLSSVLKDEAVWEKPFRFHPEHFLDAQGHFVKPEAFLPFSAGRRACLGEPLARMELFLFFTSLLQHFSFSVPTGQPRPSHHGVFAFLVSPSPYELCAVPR

CYP3A4 = CYP3A4 (Homo sapiens, UniProt P08684); test: Inhibition of CYP3A4 in human liver microsome using testosterone as substrate at 10 uM preincubated for 5 mins followed by NADPH addition and measured after 10 mins by LC-MS/MS analysis relative to control; format: ADME; details: human liver microsomes, probe testosterone, time 15 min
Chain of CYP3A4 (P08684 whole entry): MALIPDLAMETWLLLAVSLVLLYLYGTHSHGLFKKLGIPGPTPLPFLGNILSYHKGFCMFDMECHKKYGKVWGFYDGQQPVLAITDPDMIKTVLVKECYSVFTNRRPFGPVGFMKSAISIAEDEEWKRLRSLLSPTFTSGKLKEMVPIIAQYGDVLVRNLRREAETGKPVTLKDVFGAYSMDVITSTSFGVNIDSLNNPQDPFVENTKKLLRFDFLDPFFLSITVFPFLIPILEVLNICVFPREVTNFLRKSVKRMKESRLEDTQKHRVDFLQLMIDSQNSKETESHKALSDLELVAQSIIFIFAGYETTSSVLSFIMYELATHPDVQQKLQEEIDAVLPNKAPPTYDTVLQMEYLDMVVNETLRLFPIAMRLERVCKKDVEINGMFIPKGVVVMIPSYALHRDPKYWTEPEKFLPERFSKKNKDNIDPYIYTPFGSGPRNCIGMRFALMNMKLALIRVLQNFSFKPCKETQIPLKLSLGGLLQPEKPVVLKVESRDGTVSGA

[28] = Inhibition of LPS-stimulated IL-6 release in human PBMC cells; format: functional, cell-based
[29] = target: Protein cereblon/Sal-like protein 4 (Homo sapiens) (UniProt Q96SW2+Q9UJQ4); test: PROTAC activity at CRBN/SALL4 in human PBMC cells assessed as induction of SALL4 degradation at 1 uM by Western blot analysis; format: cell-based
Chain of Protein cereblon/Sal-like protein 4 (Homo sapiens) (Q96SW2 whole entry, looked up): as the sequence (Q96SW2 whole entry) above
Chain of Protein cereblon/Sal-like protein 4 (Homo sapiens) (Q9UJQ4 whole entry, looked up): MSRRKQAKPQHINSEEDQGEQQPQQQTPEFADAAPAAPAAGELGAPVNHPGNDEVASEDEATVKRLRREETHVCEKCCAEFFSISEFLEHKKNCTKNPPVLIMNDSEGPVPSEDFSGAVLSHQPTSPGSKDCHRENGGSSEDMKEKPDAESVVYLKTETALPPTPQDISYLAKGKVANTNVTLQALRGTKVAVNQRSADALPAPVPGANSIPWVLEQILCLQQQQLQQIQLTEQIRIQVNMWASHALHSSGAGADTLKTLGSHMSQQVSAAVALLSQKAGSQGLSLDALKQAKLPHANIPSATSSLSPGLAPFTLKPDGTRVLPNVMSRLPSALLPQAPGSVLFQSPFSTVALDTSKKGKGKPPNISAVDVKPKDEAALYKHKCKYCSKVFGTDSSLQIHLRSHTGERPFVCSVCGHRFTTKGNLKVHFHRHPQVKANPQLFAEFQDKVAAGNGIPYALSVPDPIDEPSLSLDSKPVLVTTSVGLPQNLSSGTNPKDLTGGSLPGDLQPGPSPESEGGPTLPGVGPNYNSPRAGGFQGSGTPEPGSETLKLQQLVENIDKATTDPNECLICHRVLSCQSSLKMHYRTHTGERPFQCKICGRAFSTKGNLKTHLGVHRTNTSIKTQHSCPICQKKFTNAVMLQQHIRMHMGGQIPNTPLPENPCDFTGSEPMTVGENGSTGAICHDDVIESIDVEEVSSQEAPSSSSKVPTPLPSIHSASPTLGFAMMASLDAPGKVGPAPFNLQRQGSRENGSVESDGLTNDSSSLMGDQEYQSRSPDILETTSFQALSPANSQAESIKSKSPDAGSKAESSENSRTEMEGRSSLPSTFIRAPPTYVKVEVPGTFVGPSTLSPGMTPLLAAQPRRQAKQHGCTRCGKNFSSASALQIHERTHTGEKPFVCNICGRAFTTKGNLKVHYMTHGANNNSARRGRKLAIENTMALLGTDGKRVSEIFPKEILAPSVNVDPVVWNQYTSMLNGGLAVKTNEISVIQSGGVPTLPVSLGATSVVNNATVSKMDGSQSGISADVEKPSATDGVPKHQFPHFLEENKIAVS

[30] = target: Cereblon/Ikaros (Homo sapiens) (UniProt Q96SW2+Q13422); test: PROTAC activity at CRBN/IKZF1 in human PBMC cells assessed as induction of SALL4 degradation at 1 uM by Western blot analysis; format: cell-based
Mus musculus [31] = test: Anti-psoriasis effect in IMQ-induced C57BL/6 mouse assessed as reduction in ear thickness at 100 mg/kg administered topically twice daily for 6 days and measured after 24 hrs; format: functional, organism-based; details: time 7.0 day
Mus musculus [32] = test: Anti-psoriasis effect in IMQ-induced C57BL/6 mouse assessed as reduction in spleen weight at 100 mg/kg administered topically twice daily for 6 days and measured after 24 hrs; format: functional, organism-based; details: time 7.0 day
[33] = target: Protein cereblon/Interleukin-1 receptor-associated kinase 4 (Mus musculus) (UniProt Q8C7D2+Q8R4K2); test: In-vivo PROTAC activity at C57BL/6 mouse assessed as reduction in IRAK4 level in spleen at 10 mg/kg, po measured after 24 hrs by Western blot analysis; format: functional, organism-based; design: scale not given: the % may be the effect or the level left
Chain of Protein cereblon/Interleukin-1 receptor-associated kinase 4 (Mus musculus) (Q8C7D2 whole entry, looked up): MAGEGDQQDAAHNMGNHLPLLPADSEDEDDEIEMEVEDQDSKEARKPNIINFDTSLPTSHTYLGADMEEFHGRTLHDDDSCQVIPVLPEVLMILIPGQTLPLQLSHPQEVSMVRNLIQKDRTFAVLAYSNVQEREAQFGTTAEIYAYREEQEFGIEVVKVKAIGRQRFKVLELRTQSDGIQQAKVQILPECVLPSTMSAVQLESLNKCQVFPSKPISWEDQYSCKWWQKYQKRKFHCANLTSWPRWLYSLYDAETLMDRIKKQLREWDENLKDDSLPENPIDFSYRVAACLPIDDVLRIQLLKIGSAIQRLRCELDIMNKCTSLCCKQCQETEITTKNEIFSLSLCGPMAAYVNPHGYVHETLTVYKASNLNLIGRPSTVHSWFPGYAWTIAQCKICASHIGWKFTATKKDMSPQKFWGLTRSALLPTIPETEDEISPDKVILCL
Chain of Protein cereblon/Interleukin-1 receptor-associated kinase 4 (Mus musculus) (Q8R4K2 whole entry, looked up): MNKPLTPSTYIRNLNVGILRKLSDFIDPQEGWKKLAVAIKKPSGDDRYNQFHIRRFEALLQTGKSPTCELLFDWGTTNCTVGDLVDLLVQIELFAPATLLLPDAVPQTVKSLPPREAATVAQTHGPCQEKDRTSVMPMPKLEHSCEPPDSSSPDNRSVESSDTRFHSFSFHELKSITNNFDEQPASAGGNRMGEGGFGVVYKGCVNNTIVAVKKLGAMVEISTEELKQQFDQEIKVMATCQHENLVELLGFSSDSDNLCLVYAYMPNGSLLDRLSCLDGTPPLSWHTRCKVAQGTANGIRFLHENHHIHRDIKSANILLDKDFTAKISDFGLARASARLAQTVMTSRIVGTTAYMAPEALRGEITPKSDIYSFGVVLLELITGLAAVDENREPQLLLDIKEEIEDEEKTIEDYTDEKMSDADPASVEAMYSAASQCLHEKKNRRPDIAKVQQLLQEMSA

Compound Cn1c(=O)n(C2CCC(=O)NC2=O)c2cccc(C#CCO[C@H]3CC[C@H](CN4CCC5(CC4)Cc4cc(NC(=O)c6coc7cccnc67)c(N6CCC(CO)CC6)cc4O5)CC3)c21 (some centres not stated) has a DC50 [1] of 4.01 nM, an Emax [2] of 94% and a half-life at 1 µM [3] of over 3.07 h. The half-life at 1 µM [4] was 1.98 h, the half-life at 1 µM [5] was over 3.07 h and the half-life at 1 µM [6] was 1.52 h. The inhibition at 3 µM (hERG (KCNH2)) was 53%, the half-life at 1 µM [7] was 2.65 h and the half-life at 1 µM [8] was 3.42 h. It also gave an efflux ratio at 2 h [9] of 2.22, a solubility kinetic at 2 h [10] of 0.97 µg/mL (≈ 1.11 µM) and a solubility kinetic at 2 h [11] of 13.3 µg/mL (≈ 15.3 µM). For the same compound, the solubility kinetic at 2 h [12] was 252 µg/mL (≈ 290 µM), the AUC(0-t) at 24 h [13] was 10600 ng·h/mL and the Tmax [14] was 2.67 h. It also gave an AUC(0-t) at 24 h [15] of 23400 ng·h/mL, a half-life [16] of 4.34 h and a bioavailability [17] of 45%. For the same compound, the AUClast [18] was 7093 ng·h/mL, the F [19] was 18% and the AUC(0-t) at 24 h [20] was 2670 ng·h/mL. It also gave an AUC(0-t) at 24 h [21] of 6990 ng·h/mL, a bioavailability [22] of 39% and a clearance [23] of 9.2 mL/min/kg. For the same compound, the Vd [24] was 3.85 L/kg, the Tmax [25] was 6 h and the Cmax [26] was 229 ng/mL. It also gave a bioavailability [27] of 11%, an inhibition at 10 min, 10 µM (CYP2C9) of 13.9% and an inhibition at 10 min, 10 µM (CYP2D6) of 13.8%. For the same compound, the inhibition at 10 min, 10 µM (CYP3A4) was 10.2%, the IC50 [28] was 16.4 nM and the Activity [29] was “inactive”. For the same compound, the Activity [30] was “inactive”, the Activity (Mus musculus [31]) was “Active” and the Activity (Mus musculus [32]) was “Active”. It also gave an Activity [33] of 74%.
